Results reported in patent publication US20060270694A1, “JAK kinase inhibitors and their uses” (Rigel Pharmaceuticals, Inc., priority 2005, published 2006).

Test system: JAK kinase (JAK1 and JAK3)
Test: IL-4 activation assay: CD23 upregulation in IL-4 stimulated Ramos B-cells, FACS
Format: cell-based, human
Description: The selectivity of the compounds illustrated in TABLES 1 and 2 for JAK kinases as compared to Syk kinase was confirmed in cellular assays designed to test for JAK and Syk inhibition. Briefly, JAK inhibition was tested in human Ramos B-cells activated with IL-4. Twenty to 24 hours post stimulation, the cells are stained for upregulation of CD23 and analyzed by FACS. Stimulation of the B-cells with IL-4 leads to the activation of the JAK/STAT pathway through phosphorylation of the JAK kinase JAK1 and JAK3, which in turn phosphorylate and activate transcription of factor […].
For the assay, human Ramos B-cells (ATCC, Catalog No. CRL-1596) are cultured in RPMI 1640 medium (Cellgro, Catalog No. 10-040-CM) containing 10% fetal bovine serum (JRH, Catalog No. 12106-500M) according to the propagation protocol supplied with the cells, and maintained at a density of approximately 3.5×10^5 cells/ml. The day before the assay, the cells are diluted to 3.5×10^5 cells/ml to insure they are in the logorithmic growth phase. The cells are spun down, and suspended in RPMI 1640 medium containing 5% fetal bovine serum to a density of 3.5×10^4 cells/ml and aliquots dispensed into a 96-well tissue culture plate. Cells are incubated with test compound (dissolved in DMSO) or DMSO (control) for 1 hr at 37° C. and then stimulated with IL-4 (Pepotech, Catalog No. 200-04) for 20-24 hours (final concentration is 50 Units/ml). Cells are then spun down, stained with anti-CD23-PE antibody (BD Pharmigen, Catalog No.555711) and analyzed by FACS.

[1] = TABLE 2, IC50 CHMC degranulation (tryptase) / IC50 IL-4 Ramos CD23
[2] = TABLE 1, IC50 CHMC degranulation / IC50 IL-4 Ramos CD23, minimum ratio, calculated using Syk IC50 of 50 μM (upper limit of assay)

CNC(=O)COc1cccc(Nc2ncc(F)c(Nc3ccc(OC)c(C(=O)OC)c3)n2)c1 [Cmpd 68]
IC50 Ratio (Syk/JAK) [1]: 16

O=C1Nc2cc(Nc3nc(Nc4ccc(-c5cnco5)cc4)ncc3F)ccc2OC1CCO (stereo not shown) [Cmpd 79]
IC50 Ratio (Syk/JAK) [1]: 12

COc1ccc(Nc2nc(Nc3ccc(N4CCN(C)CC4)c(C(N)=O)c3)ncc2F)cc1Cl [Cmpd 50]
IC50 Ratio (Syk/JAK) [1]: 26

Cc1cc(Nc2nc(Nc3ccc(C(N)=O)cc3)ncc2F)ccc1N1CCN(C)CC1 [Cmpd 28]
IC50 Ratio (Syk/JAK) [1]: 146

CNC(=O)Cn1ncc2ccc(Nc3nc(Nc4ccc5c(c4)OCCO5)ncc3F)cc21 [Cmpd 84]
IC50 Ratio (Syk/JAK) [1]: 10

CCN1CCN(c2ccc(Nc3ncc(F)c(NC4CC(C)(C)N(C)C(C)(C)C4)n3)cn2)CC1 [Cmpd 23]
IC50 Ratio (Syk/JAK) [2]: 12

CCN(CC)CCNC(=O)c1ccc(Nc2ncc(F)c(NC3CCCC3)n2)cc1 [Cmpd 38]
IC50 Ratio (Syk/JAK) [1]: 39

O=C1Nc2ccc(Nc3nc(Nc4cccc(-c5ncco5)c4)ncc3F)cc2OC1CCO (stereo not shown) [Cmpd 57]
IC50 Ratio (Syk/JAK) [1]: 21

CNC(=O)COc1cccc(Nc2ncc(F)c(Nc3cccc(OC(=O)N(C(=O)NC(C)C)C(C)C)c3)n2)c1 [Cmpd 71]
IC50 Ratio (Syk/JAK) [1]: 15

Fc1cnc(Nc2ccc3c(c2)OCCO3)nc1Nn1cccc1 [Cmpd 16]
IC50 Ratio (Syk/JAK) [2]: 22

CCN(CC)CNC(=O)c1ccc(Nc2ncc(F)c(Nc3ccc4c(c3)C(=O)NC(=O)C4(C)C)n2)cc1 [Cmpd 65]
IC50 Ratio (Syk/JAK) [1]: 18

CN1CCN(c2ccc(Nc3ncc(F)c(NC4CC(C)(C)N(C)C(C)(C)C4)n3)cc2Cl)CC1 [Cmpd 1]
IC50 Ratio (Syk/JAK) [2]: 207

COc1ccc(Nc2nc(Nc3cccc(-c4nnc(C(C)(C)C)o4)c3)ncc2F)cc1OC [Cmpd 63]
IC50 Ratio (Syk/JAK) [1]: 19

NCc1cccc(Nc2ncc(F)c(Nc3cccc(CN)c3)n2)c1 [Cmpd 44]
IC50 Ratio (Syk/JAK) [1]: 30

Cc1noc(COc2ccc(Nc3nc(Nc4ccc(C(N)=O)c(O)c4)ncc3F)cc2)n1 [Cmpd 78]
IC50 Ratio (Syk/JAK) [1]: 13

Cc1cc(Nc2ncc(F)c(NC3CC(C)(C)N(C)C(C)(C)C3)n2)ccc1N1CCN(C)CC1 [Cmpd 49]
IC50 Ratio (Syk/JAK) [1]: 26

CNC(=O)COc1cccc(Nc2ncc(F)c(Nc3ccc(OC)c(CN(C)C)c3)n2)c1 [Cmpd 8]
IC50 Ratio (Syk/JAK) [2]: 51

COc1ccc(Nc2ncc(F)c(Nc3ccc4c(c3)NC(=O)CO4)n2)cc1Cl [Cmpd 75]
IC50 Ratio (Syk/JAK) [1]: 14

CNS(=O)(=O)c1ccc(Nc2ncc(F)c(Nc3ccc(OC)c(OC)c3)n2)cc1OC [Cmpd 85]
IC50 Ratio (Syk/JAK) [1]: 10

O=[N+]([O-])c1cc(Nc2ccnc(Nc3ccc(Cl)c([N+](=O)[O-])c3)n2)ccc1Cl [Cmpd 62]
IC50 Ratio (Syk/JAK) [1]: 19

C[C@H]1Oc2ccc(Nc3nc(Nc4ccc(C(=O)NCC(=O)O)cc4)ncc3F)cc2NC1=O [Cmpd 26]
IC50 Ratio (Syk/JAK) [2]: 10

CNC(=O)COc1cccc(Nc2ncc(F)c(Nc3ccc(OC)c(CN(C(=O)OC(C)(C)C)C(C)C)c3)n2)c1 [Cmpd 22]
IC50 Ratio (Syk/JAK) [2]: 13

Cc1cc(Nc2ncc(F)c(NC3C=C[C@@H](C(N)=O)C3)n2)ccc1N1CCN(C)CC1 (stereo partly shown) [Cmpd 69]
IC50 Ratio (Syk/JAK) [1]: 16

CCN(CC)CCNC(=O)c1ccc(Nc2ncc(F)c(Nc3ccc(OC)c(Cl)c3)n2)cc1 [Cmpd 58]
IC50 Ratio (Syk/JAK) [1]: 21

CCNC(=O)Nc1ccc(Nc2ncc(F)c(Nc3ccc(NC(=O)NCC)cc3)n2)cc1 [Cmpd 9]
IC50 Ratio (Syk/JAK) [2]: 47

CS(=O)(=O)Nc1ccc(Nc2ncc(F)c(Nc3ccc(NS(C)(=O)=O)cc3)n2)cc1 [Cmpd 64]
IC50 Ratio (Syk/JAK) [1]: 19

COc1ccc(Nc2nc(Nc3ccc(C(N)=O)c(Cl)c3)ncc2F)cc1Cl [Cmpd 83]
IC50 Ratio (Syk/JAK) [1]: 10

Fc1ccc(Nc2ncc(F)c(Nc3ccc4c(c3)OCCO4)n2)cc1Cl [Cmpd 24]
IC50 Ratio (Syk/JAK) [2]: 12

C[C@@H]1Oc2ccc(Nc3nc(Nc4ccc(CN)cc4)ncc3F)cc2NC1=O [Cmpd 37]
IC50 Ratio (Syk/JAK) [1]: 42

NCCNC(=O)c1cc2cc(Nc3ncc(F)c(Nc4ccc5oc(C(=O)NCCN)cc5c4)n3)ccc2o1 [Cmpd 52]
IC50 Ratio (Syk/JAK) [1]: 25

COc1cc(Nc2nc(Nc3ccc(CN)cc3)ncc2F)cc(OC)c1 [Cmpd 76]
IC50 Ratio (Syk/JAK) [1]: 14
